# Source: US20260055097A9, “NRF2 PROTEIN DEGRADERS” (Ganymede Oncology, Inc., priority 2022, published 2026)
# Like-named read-outs stand apart in the source and are kept apart here.
# How the values were obtained:
# [1] = system: various cancer cell lines; experiment: Cancer cell testing, inhibitory activity in various cancer cell lines (CellTiter-Glo, 72 hours); format: cell-based
# Method: The inhibitory activity of representative Compounds of the Disclosure was tested in various cancer cell lines according to the following protocol.
# Cells were harvested from flasks into cell culture media and cell numbers were counted. Cells were then diluted with culture medium to the desired density, and 40 μL of cell suspension were added into each well of a 384-well cell culture plate (Corning, #3764). Plates were covered with lids and placed at room temperature for 30 minutes without shaking, and then transferred into a 37° C. 5% CO2 incubator.
# Cpd. Nos. 30 and 34 were dissolved in DMSO to form a 10 mM stock solution. Paclitaxel as the control compound was dissolved in DMSO to form a 0.33 mM stock solution. 45 μL of stock solution was transferred to a 384 pp-plate and 3-fold, 10-point dilutions were performed by transferring 15 μL of compound into 30 μL of DMSO using a TECAN (EVO200) liquid handler. Plates were spun at room temperature at 1,000 RPM for 1 minute, and shaken at a plate shaker for 2 minutes. […] of diluted compound were transferred from compound source plate into the cell plate. After compound treatment for 72 hours, CTG detection was performed for compound treatment plates as described in the “Detection” section.
# CellTiter Glo reagents were thawed and equilibrated to room temperature before the experiment. Plates were removed from incubators and equilibrated at room temperature for 15 minutes. 40 μL of CellTiter-Glo reagent was added to each well to be detected at 1:1 to culture medium. Then, plates were placed at room temperature for 30 min followed by reading on Ensight.
# Inhibition activity was calculated following the formula below:
# [formula] • HC: 0.3% DMSO, LC: 1 μM Paclitaxel
# IC50S were calculated by fitting the Curve using Xlfit (v5.3.1.3) according to the following equation: […]
# Nrf2 = biological target: T1, Nrf2 (Homo sapiens, UniProt Q16236); experiment: Nrf2 degradation in A549 HiBiT-Nrf2 cells, Nano-Glo HiBiT lytic detection (HiBiT readout); format: cell-based; set-up: host or cells: A549 HiBiT-Nrf2 cells (engineered line bought from Promega)
# T1 sequence (Q16236 1-605): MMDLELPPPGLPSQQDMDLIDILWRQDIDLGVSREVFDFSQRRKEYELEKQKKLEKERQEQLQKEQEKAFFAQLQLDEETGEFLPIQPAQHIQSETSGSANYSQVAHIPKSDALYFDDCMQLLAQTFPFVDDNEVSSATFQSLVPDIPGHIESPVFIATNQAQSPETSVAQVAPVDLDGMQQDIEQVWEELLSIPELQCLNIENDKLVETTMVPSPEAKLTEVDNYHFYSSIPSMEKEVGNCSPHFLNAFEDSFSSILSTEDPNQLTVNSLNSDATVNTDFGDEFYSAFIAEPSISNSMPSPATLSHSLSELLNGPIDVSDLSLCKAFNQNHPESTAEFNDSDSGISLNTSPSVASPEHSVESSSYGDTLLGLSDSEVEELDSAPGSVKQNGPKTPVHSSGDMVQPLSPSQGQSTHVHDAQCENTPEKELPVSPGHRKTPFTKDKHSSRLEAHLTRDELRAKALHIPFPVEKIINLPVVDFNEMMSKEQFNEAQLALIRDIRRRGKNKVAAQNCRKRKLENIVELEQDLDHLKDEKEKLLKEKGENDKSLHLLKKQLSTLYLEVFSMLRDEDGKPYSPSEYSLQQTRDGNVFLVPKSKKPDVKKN
# Summary of the method: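 A549 HiBiT-Nrf2 cells seeded at 5,000 cells/well in Ham's F-12 with 10% FBS, then treated next day for 6 h and 20 h at 37 °C, 5% CO2. Nrf2 degradation read by Nano-Glo HiBiT lytic luminescence after 30 min at room temperature; staurosporine served as control.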
# [2] = HCC15, HCC-15, LUNG, KEAP1 p.G364C
# [3] = HEC59, UTERINE/ENDOMETRIAL, NRF2 p.N329D
# [4] = HEC151, UTERINE/ENDOMETRIAL, KEAP1 p.A34S, NRF2 p.L23GfsTer5
# [5] = HEC-251, HEC251, UTERINE/ENDOMETRIAL, KEAP1 p.Q227R, NRF2 p.K516T
# [6] = HEC-265, UTERINE/ENDOMETRIAL, KEAP1 p.R483C
# [7] = HO1U1, HEAD & NECK, NRF2 p.E82D
# [8] = Homo sapiens, A549, A549, LUNG, KEAP1 p.G333C
# [9] = Homo sapiens, COR-L88, CORL88, LUNG, NRF2 p.Q26P
# [10] = Homo sapiens, EBC-1, EBC1, LUNG, NRF2 p.D77V
# [11] = Homo sapiens, HCC44, HCC44, UTERINE/ENDOMETRIAL, KEAP1 p.F211C
# [12] = Homo sapiens, HCC95, HCC-95, LUNG, no KEAP1/NRF2 mutation listed
# [13] = Homo sapiens, HEC-1-A, HEC1A, UTERINE/ENDOMETRIAL, KEAP1 p.Y33C, NRF2 G31R
# [14] = Homo sapiens, HEC-1B, HEC1B, UTERINE/ENDOMETRIAL, NRF2 p.G31R
# [15] = Homo sapiens, KYSE-70, KYSE70, ESOPHAGEAL, NRF2 p.W24C
# [16] = Homo sapiens, KYSE-180, KYSE180, ESOPHAGEAL, NRF2 p.P278Q
# [17] = Homo sapiens, KYSE-520, KYSE520, ESOPHAGEAL, NRF2 p.T80I
# [18] = Homo sapiens, MES-SA, MESSA, UTERINE/ENDOMETRIAL, NRF2 p.E79K
# [19] = Homo sapiens, MRC5, MRC-5, NORMAL LUNG FIBROBLAST
# [20] = Homo sapiens, NCI-H23, NCI-H23, LUNG, KEAP1 p.Q193H
# [21] = Homo sapiens, NCI-H358, NCI-H358, LUNG, no KEAP1/NRF2 mutation listed
# [22] = Homo sapiens, NCI-H460, NCI-H460, LUNG, KEAP1 p.D236H
# [23] = Homo sapiens, NCI-H1792, NCI-H1792, LUNG, KEAP1 p.G462W
# [24] = Homo sapiens, NCI-H1944, NCI-H1944, LUNG, KEAP1 p.R320L
# [25] = Homo sapiens, NCI-H2030, NCI-H2030, LUNG, KEAP1 p.V568F
# [26] = Homo sapiens, NCI-H2122, NCI-H2122, LUNG, KEAP1 p.A170_R204del
# [27] = Homo sapiens, NCI-H2126, NCI-H2126, LUNG, KEAP1 p.R320L
# [28] = Homo sapiens, NCI-H2228, NCI-H2228, LUNG, NRF2 p.G31A
# [29] = Homo sapiens, RL95-2, RL95-2, UTERINE/ENDOMETRIAL, KEAP1 p.R116W
# [30] = Homo sapiens, SHP77, SHP-77, LUNG, KEAP1 p.D294Y
# [31] = Homo sapiens, UMC-11, UMC11, LUNG, KEAP1 p.G571A
# [32] = JHOC-5, UTERINE/ENDOMETRIAL, KEAP1 p.R483H
# [33] = MORCPR, LUNG, KEAP1 p.K551SfsTer44
# [34] = NCI-H322, NCI-H322, LUNG, KEAP1 p.R460S
# [35] = NCI-H1435, NCI-H1435, LUNG, KEAP1 p.R413L
# [36] = NCI-H1688, NCI-H1688, LUNG, KEAP1 p.G511S
# [37] = NCI-H2066, NCI-H2066, LUNG, KEAP1 p.P361L
# [38] = NCI-H2110, NCI-H2110, LUNG, KEAP1 p.G429C
# [39] = NCI-H2172, NCI-H2172, LUNG, KEAP1 p.G430C
# [40] = OE21, OE21, ESOPHAGEAL, NRF2 p.D318H
# [41] = RERF-LC-Sq1, RERFLCSQ1, LUNG, NRF2 p.D29H
# [42] = RMUG-S, UTERINE/ENDOMETRIAL, KEAP1 p.G603V
# [43] = SW579, SW579, HEAD & NECK, NRF2 p.D77Y
# [44] = 6 h, read-out: DC50 (nM) at 6 h
# [45] = 20 h, read-out: DC50 (nM) at 20 h
smiles,measurement,setting,value
"Cc1sc(NC(=O)Cc2ccc(F)c(OCCOCCNc3ccc4c(c3)CN(C3CCC(=O)NC3=O)C4=O)c2)nc1-c1ccc2c(c1)CCN2C(=O)c1cncn1C (stereo not shown) [Cpd. No. 30, 2-(3-(2-(2-((2-(2,6-dioxopiperidin-3-yl)-1-oxoisoindolin-5-yl)amino)ethoxy)ethoxy)-4-fluorophenyl)-N-(5-methyl-4-(1-(1-methyl-1H-imidazole-5-carbonyl)indolin-5-yl)thiazol-2-yl)acetamide]",IC50,[1]; [2],0.0041 µM
same,IC50,[1]; [3],0.0028 µM
same,IC50,[1]; [4],0.0048 µM
same,IC50,[1]; [5],< 0.0015 µM
same,IC50,[1]; [6],0.0087 µM
same,IC50,[1]; [7],0.0128 µM
same,IC50,[1]; [8],0.0043 µM
same,IC50,[1]; [9],< 0.0015 µM
same,IC50,[1]; [10],0.0113 µM
same,IC50,[1]; [11],0.397 µM
same,IC50,[1]; [12],0.302 µM
same,IC50,[1]; [13],0.0029 µM
same,IC50,[1]; [14],0.0319 µM
same,IC50,[1]; [15],0.0088 µM
same,IC50,[1]; [16],0.004 µM
same,IC50,[1]; [17],0.0017 µM
same,IC50,[1]; [18],0.0047 µM
same,IC50,[1]; [19],0.0125 µM
same,IC50,[1]; [20],0.126 µM
same,IC50,[1]; [21],0.0116 µM
same,IC50,[1]; [22],15.5 µM
same,IC50,[1]; [23],0.0065 µM
same,IC50,[1]; [24],0.0252 µM
same,IC50,[1]; [25],0.169 µM
same,IC50,[1]; [26],0.0549 µM
same,IC50,[1]; [27],0.0989 µM
same,IC50,[1]; [28],0.0126 µM
same,IC50,[1]; [29],0.0028 µM
same,IC50,[1]; [30],0.0296 µM
same,IC50,[1]; [31],0.0058 µM
same,IC50,[1]; [32],0.0115 µM
same,IC50,"[1]; LK-2, LUNG, NRF2 p.E79K",< 0.0015 µM
same,IC50,[1]; [33],0.0034 µM
same,IC50,[1]; [34],0.0039 µM
same,IC50,"[1]; NCI-H920, LUNG, KEAP1 p.G603V",0.191 µM
same,IC50,[1]; [35],0.038 µM
same,IC50,[1]; [36],< 0.002 µM
same,IC50,[1]; [37],0.0044 µM
same,IC50,[1]; [38],0.0051 µM
same,IC50,[1]; [39],0.0059 µM
same,IC50,[1]; [40],0.156 µM
same,IC50,[1]; [41],0.0126 µM
same,IC50,[1]; [42],0.0215 µM
same,IC50,"[1]; SNU2535, LUNG, NRF2 p.D29H",0.0089 µM
same,IC50,[1]; [43],0.0067 µM
same,DC50,Nrf2; [44],< 300 nM
same,DC50,Nrf2; [45],> 3000 nM
"Cc1sc(NC(=O)Cc2cccc(OCCOCCNc3cccc4c3C(=O)N(C3CCC(=O)NC3=O)C4=O)c2)nc1-c1ccc2c(c1)CCN2C(=O)C1CC1 (stereo not shown) [Cpd. No. 34, N-(4-(1-(cyclopropanecarbonyl)indolin-5-yl)-5-methylthiazol-2-yl)-2-(3-(2-(2-((2-(2,6-dioxopiperidin-3-yl)-1,3-dioxoisoindolin-4-yl)amino)ethoxy)ethoxy)phenyl) acetamide]",IC50,[1]; [2],0.0301 µM
same,IC50,[1]; [3],0.0204 µM
same,IC50,[1]; [4],0.0867 µM
same,IC50,[1]; [5],0.0106 µM
same,IC50,[1]; [6],0.0667 µM
same,IC50,[1]; [7],0.0548 µM
same,IC50,[1]; [8],0.0206 µM
same,IC50,[1]; [9],0.0044 µM
same,IC50,[1]; [10],0.152 µM
same,IC50,[1]; [11],> 30 µM
same,IC50,[1]; [12],> 30 µM
same,IC50,[1]; [13],0.0203 µM
same,IC50,[1]; [14],> 30 µM
same,IC50,[1]; [15],0.0336 µM
same,IC50,[1]; [16],0.0458 µM
same,IC50,[1]; [17],0.0132 µM
same,IC50,[1]; [18],0.0351 µM
same,IC50,[1]; [19],0.0354 µM
same,IC50,[1]; [20],> 30 µM
same,IC50,[1]; [21],0.0449 µM
same,IC50,[1]; [22],> 30 µM
same,IC50,[1]; [23],0.0417 µM
same,IC50,[1]; [24],0.107 µM
same,IC50,[1]; [25],0.224 µM
same,IC50,[1]; [26],> 30 µM
same,IC50,[1]; [27],> 30 µM
same,IC50,[1]; [28],0.0574 µM
same,IC50,[1]; [29],0.0209 µM
same,IC50,[1]; [30],0.0225 µM
same,IC50,[1]; [31],0.0122 µM
same,IC50,[1]; [32],0.0542 µM
same,IC50,"[1]; LK-2, LUNG, NRF2 p.E79K",0.0094 µM
same,IC50,[1]; [33],0.0332 µM
same,IC50,[1]; [34],0.0239 µM
same,IC50,"[1]; NCI-H920, LUNG, KEAP1 p.G603V",> 30 µM
same,IC50,[1]; [35],0.15 µM
same,IC50,[1]; [36],0.013 µM
same,IC50,[1]; [37],0.0159 µM
same,IC50,[1]; [38],0.0421 µM
same,IC50,[1]; [39],0.0142 µM
same,IC50,[1]; [40],> 30 µM
same,IC50,[1]; [41],0.0856 µM
same,IC50,[1]; [42],0.0181 µM
same,IC50,"[1]; SNU2535, LUNG, NRF2 p.D29H",> 30 µM
same,IC50,[1]; [43],0.0731 µM
same,DC50,Nrf2; [44],< 300 nM
same,DC50,Nrf2; [45],< 300 nM
